Active and inactive are the calls of the source. The rule behind the calls is not given here.
Tests used:
Format in all cases: functional
[1] = Cytotoxicity against human Caki1 cells at 10 uM after 48 hrs by SRB assay; conditions: CAKI-1, 48 h, read-out: GI
[2] = Cytotoxicity against human RXF393 cells at 10 uM after 48 hrs by SRB assay; conditions: RXF 393, 48 h, read-out: GI
SN12C = assay: Cytotoxicity against human SN12C cells at 10 uM after 48 hrs by SRB assay; conditions: read-out: GI
[3] = Cytotoxicity against human TK10 cells at 10 uM after 48 hrs by SRB assay; conditions: TK-10, 48 h, read-out: GI
[4] = Cytotoxicity against human UO31 cells at 10 uM after 48 hrs by SRB assay; conditions: UO-31, 48 h, read-out: GI
[5] = Cytotoxicity against human PC3 cells at 10 uM after 48 hrs by SRB assay; conditions: PC-3, 48 h, read-out: GI
[6] = Cytotoxicity against human DU145 cells at 10 uM after 48 hrs by SRB assay; conditions: DU-145, 48 h, read-out: GI
MCF7 = assay: Cytotoxicity against human MCF7 cells at 10 uM after 48 hrs by SRB assay; conditions: MCF7, 48 h, read-out: GI
MDA-MB-231 = assay: Cytotoxicity against human MDA-MB-231 cells at 10 uM after 48 hrs by SRB assay; conditions: MDA-MB-231, 48 h, read-out: GI
[7] = Cytotoxicity against human Hs 578T cells at 10 uM after 48 hrs by SRB assay; conditions: read-out: GI
[8] = Cytotoxicity against human BT549 cells at 10 uM after 48 hrs by SRB assay; conditions: BT-549, 48 h, read-out: GI
T47D = assay: Cytotoxicity against human T47D cells at 10 uM after 48 hrs by SRB assay; conditions: read-out: GI
MDA-MB-468 = assay: Cytotoxicity against human MDA-MB-468 cells at 10 uM after 48 hrs by SRB assay; conditions: MDA-MB-468, 48 h, read-out: GI
CCRF-CEM = assay: Cytotoxicity against human CCRF-CEM cells at 10 uM after 48 hrs by SRB assay; conditions: read-out: GI
[9] = Cytotoxicity against human HL-60(TB) cells at 10 uM after 48 hrs by SRB assay; conditions: HL-60, 48 h, read-out: GI
K562 = assay: Cytotoxicity against human K562 cells at 10 uM after 48 hrs by SRB assay; conditions: K562, 48 h, read-out: GI
[10] = Cytotoxicity against human MOLT4 cells at 10 uM after 48 hrs by SRB assay; conditions: MOLT-4, 48 h, read-out: GI
[11] = Cytotoxicity against human RPMI8226 cells at 10 uM after 48 hrs by SRB assay; conditions: RPMI-8226, 48 h, read-out: GI
SR = assay: Cytotoxicity against human SR cells at 10 uM after 48 hrs by SRB assay; conditions: read-out: GI
A549 = assay: Cytotoxicity against human A549 cells at 10 uM after 48 hrs by SRB assay; conditions: A549, 48 h, read-out: GI
[12] = Cytotoxicity against human HOP62 cells at 10 uM after 48 hrs by SRB assay; conditions: HOP-62, 48 h, read-out: GI
[13] = Cytotoxicity against human HOP92 cells at 10 uM after 48 hrs by SRB assay; conditions: HOP-92, 48 h, read-out: GI
NCI-H226 = assay: Cytotoxicity against human NCI-H226 cells at 10 uM after 48 hrs by SRB assay; conditions: NCI-H226, 48 h, read-out: GI
NCI-H460 = assay: Cytotoxicity against human NCI-H460 cells at 10 uM after 48 hrs by SRB assay; conditions: NCI-H460, 48 h, read-out: GI
NCI-H522 = assay: Cytotoxicity against human NCI-H522 cells at 10 uM after 48 hrs by SRB assay
COLO 205 = assay: Cytotoxicity against human COLO205 cells at 10 uM after 48 hrs by SRB assay
[14] = Cytotoxicity against human HCC2998 cells at 10 uM after 48 hrs by SRB assay; conditions: HCC 2998, 48 h, read-out: GI
[15] = Cytotoxicity against human HCT116 cells at 10 uM after 48 hrs by SRB assay; conditions: HCT-116, 48 h, read-out: GI
[16] = Cytotoxicity against human HCT15 cells at 10 uM after 48 hrs by SRB assay; conditions: HCT-15, 48 h, read-out: GI
HT-29 = assay: Cytotoxicity against human HT-29 cells at 10 uM after 48 hrs by SRB assay; conditions: HT-29, 48 h, read-out: GI
KM12 = assay: Cytotoxicity against human KM12 cells at 10 uM after 48 hrs by SRB assay; conditions: KM12, 48 h, read-out: GI
[17] = Cytotoxicity against human SW620 cells at 10 uM after 48 hrs by SRB assay; conditions: SW-620, 48 h, read-out: GI
[18] = Cytotoxicity against human SF268 cells at 10 uM after 48 hrs by SRB assay; conditions: SF-268, 48 h, read-out: GI
[19] = Cytotoxicity against human SF295 cells at 10 uM after 48 hrs by SRB assay; conditions: SF-295, 48 h, read-out: GI
[20] = Cytotoxicity against human SF539 cells at 10 uM after 48 hrs by SRB assay; conditions: SF-539, 48 h, read-out: GI
[21] = Cytotoxicity against human SNB19 cells at 10 uM after 48 hrs by SRB assay; conditions: SNB-19, 48 h, read-out: GI
[22] = Cytotoxicity against human SNB75 cells at 10 uM after 48 hrs by SRB assay; conditions: SNB-75, 48 h, read-out: GI
[23] = Cytotoxicity against human LOXIMVI cells at 10 uM after 48 hrs by SRB assay; conditions: LOX IMVI, read-out: GI
Malme-3M = assay: Cytotoxicity against human MALME-3M cells at 10 uM after 48 hrs by SRB assay
M14 = assay: Cytotoxicity against human M14 cells at 10 uM after 48 hrs by SRB assay
MDA-MB-435 = assay: Cytotoxicity against human MDA-MB-435 cells at 10 uM after 48 hrs by SRB assay; conditions: MDA-MB-435, 48 h, read-out: GI
SK-MEL-2 = assay: Cytotoxicity against human SK-MEL-2 cells at 10 uM after 48 hrs by SRB assay
SK-MEL-28 = assay: Cytotoxicity against human SK-MEL-28 cells at 10 uM after 48 hrs by SRB assay
SK-MEL-5 = assay: Cytotoxicity against human SK-MEL-5 cells at 10 uM after 48 hrs by SRB assay; conditions: SK-MEL-5, 48 h, read-out: GI
[24] = Cytotoxicity against human UACC257 cells at 10 uM after 48 hrs by SRB assay; conditions: UACC-257, 48 h, read-out: GI
[25] = Cytotoxicity against human UACC62 cells at 10 uM after 48 hrs by SRB assay; conditions: UACC-62, 48 h, read-out: GI
[26] = Cytotoxicity against human IGROV1 cells at 10 uM after 48 hrs by SRB assay; conditions: IGROV-1, 48 h, read-out: GI
[27] = Cytotoxicity against human OVCAR3 cells at 10 uM after 48 hrs by SRB assay; conditions: OVCAR-3, 48 h, read-out: GI
[28] = Cytotoxicity against human OVCAR4 cells at 10 uM after 48 hrs by SRB assay; conditions: OVCAR-4, 48 h, read-out: GI
[29] = Cytotoxicity against human OVCAR5 cells at 10 uM after 48 hrs by SRB assay; conditions: OVCAR-5, 48 h, read-out: GI
[30] = Cytotoxicity against human OVCAR8 cells at 10 uM after 48 hrs by SRB assay; conditions: OVCAR-8, 48 h, read-out: GI
[31] = Cytotoxicity against human NCI-ADR-RES cells at 10 uM after 48 hrs by SRB assay; conditions: read-out: GI
[32] = Cytotoxicity against human SKOV3 cells at 10 uM after 48 hrs by SRB assay; conditions: SK-OV-3, 48 h, read-out: GI
786-0 = assay: Cytotoxicity against human 786-0 cells at 10 uM after 48 hrs by SRB assay; conditions: 786-0, 48 h, read-out: GI
A498 = assay: Cytotoxicity against human A498 cells at 10 uM after 48 hrs by SRB assay; conditions: A498, 48 h, read-out: GI
ACHN = assay: Cytotoxicity against human ACHN cells at 10 uM after 48 hrs by SRB assay; conditions: read-out: GI

## Cc1nc2cc(Nc3nc(Cl)nc(Nc4ccc(F)cc4)n3)ccc2n1Cc1ccccc1
[1]
  inhibition of growth at 10 µM: 12.3%
[2]
  inhibition of growth at 10 µM: 22.9%
SN12C
  inhibition of growth at 10 µM: 22.1%
[3]
  inhibition of growth at 10 µM: 41.5%
[4]
  inhibition of growth at 10 µM: 19.3%
[5]
  inhibition of growth at 10 µM: 21.2%
[6]
  inhibition of growth at 10 µM: 36%
MCF7
  inhibition of growth at 10 µM: 38.5%
MDA-MB-231
  inhibition of growth at 10 µM: 17.9%
[7]
  inhibition of growth at 10 µM: 20.5%
[8]
  inhibition of growth at 10 µM: 9.39%
T47D
  inhibition of growth at 10 µM: 43%
MDA-MB-468
  inhibition of growth at 10 µM: 23.8%
CCRF-CEM
  inhibition of growth at 10 µM: 21.5%
[9]
  inhibition of growth at 10 µM: 46.8%
K562
  inhibition of growth at 10 µM: 14.8%
[10]
  inhibition of growth at 10 µM: 9.41%
[11]
  inhibition of growth at 10 µM: 84.7%
SR
  inhibition of growth at 10 µM: 42.5%
A549
  inhibition of growth at 10 µM: 13.3%
[12]
  inhibition of growth at 10 µM: 11.6%
[13]
  inhibition of growth at 10 µM: 49.3%
NCI-H226
  inhibition of growth at 10 µM: 19.6%
NCI-H460
  inhibition of growth at 10 µM: 12%
NCI-H522
  growth inhibition (GI): Active
COLO 205
  growth inhibition (GI): inactive
[14]
  inhibition of growth at 10 µM: 5.54%
[15]
  inhibition of growth at 10 µM: 96.1%
[16]
  inhibition of growth at 10 µM: 27.9%
HT-29
  inhibition of growth at 10 µM: 5.46%
KM12
  inhibition of growth at 10 µM: 30.8%
[17]
  inhibition of growth at 10 µM: 15.2%
[18]
  inhibition of growth at 10 µM: 8.93%
[19]
  inhibition of growth at 10 µM: 3.61%
[20]
  inhibition of growth at 10 µM: 29.8%
[21]
  inhibition of growth at 10 µM: 7.64%
[22]
  inhibition of growth at 10 µM: 10%
[23]
  inhibition of growth at 10 µM: 56.7%
Malme-3M
  growth inhibition (GI): inactive
M14
  growth inhibition (GI): inactive
MDA-MB-435
  inhibition of growth at 10 µM: 4.44%
SK-MEL-2
  growth inhibition (GI): inactive
SK-MEL-28
  growth inhibition (GI): inactive
SK-MEL-5
  inhibition of growth at 10 µM: 7.59%
[24]
  inhibition of growth at 10 µM: 10.3%
[25]
  inhibition of growth at 10 µM: 17.6%
[26]
  inhibition of growth at 10 µM: 17%
[27]
  inhibition of growth at 10 µM: 5.75%
[28]
  inhibition of growth at 10 µM: 14.2%
[29]
  inhibition of growth at 10 µM: 3.73%
[30]
  inhibition of growth at 10 µM: 18.5%
[31]
  inhibition of growth at 10 µM: 4.36%
[32]
  inhibition of growth at 10 µM: 4.12%
786-0
  inhibition of growth at 10 µM: 67%
A498
  inhibition of growth at 10 µM: 30.6%
ACHN
  inhibition of growth at 10 µM: 63.8%
